pIC50: −log10 of the molar value. In brackets after ≈: the same amount, converted by molar mass.
Experiments:
[1] = Inhibition of recombinant Plasmodium falciparum N-terminal His6-tagged GGPPS expressed in Escherichia coli expression system assessed as reduction in pyrophosphate release using GPP as substrate incubated for 30 mins followed by substrate addition by PPiLight detection reagent based luminescence assay
[2] = target: T1, Geranylgeranyl pyrophosphate synthase (Homo sapiens, UniProt O95749); test: Inhibition of recombinant human N-terminal His6-tagged GGPPS assessed as reduction in pyrophosphate release using GPP as substrate upto 200 uM incubated for 30 mins followed by substrate addition by PPiLight detection reagent based luminescence assay; settings: 0.5 h
T1 sequence (O95749 whole entry): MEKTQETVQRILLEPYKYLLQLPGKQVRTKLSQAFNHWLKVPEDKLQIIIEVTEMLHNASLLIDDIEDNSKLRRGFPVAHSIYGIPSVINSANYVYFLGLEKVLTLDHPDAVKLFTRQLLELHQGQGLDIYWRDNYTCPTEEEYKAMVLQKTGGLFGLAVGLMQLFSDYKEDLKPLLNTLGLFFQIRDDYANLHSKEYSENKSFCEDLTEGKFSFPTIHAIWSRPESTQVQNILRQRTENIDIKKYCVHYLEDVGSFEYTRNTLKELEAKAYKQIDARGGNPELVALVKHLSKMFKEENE

[3] = target: T2, Farnesyl pyrophosphate synthase (Homo sapiens, UniProt P14324); test: Inhibition of recombinant human N-terminal His6-tagged FPPS assessed as reduction in pyrophosphate release using GPP as substrate upto 200 uM incubated for 30 mins followed by substrate addition by PPiLight detection reagent based luminescence assay; settings: 0.5 h
T2 sequence (P14324 whole entry): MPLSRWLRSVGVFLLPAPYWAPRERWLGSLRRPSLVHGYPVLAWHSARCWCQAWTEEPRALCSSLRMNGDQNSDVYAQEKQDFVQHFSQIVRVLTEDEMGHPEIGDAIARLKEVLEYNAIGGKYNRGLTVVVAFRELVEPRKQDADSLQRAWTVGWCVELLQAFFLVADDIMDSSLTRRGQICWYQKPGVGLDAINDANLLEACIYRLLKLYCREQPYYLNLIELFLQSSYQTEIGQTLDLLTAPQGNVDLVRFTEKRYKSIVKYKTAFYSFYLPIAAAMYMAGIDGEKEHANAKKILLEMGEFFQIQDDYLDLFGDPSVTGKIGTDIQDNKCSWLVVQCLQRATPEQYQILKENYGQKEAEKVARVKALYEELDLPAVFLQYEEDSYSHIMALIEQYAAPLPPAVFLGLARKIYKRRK

Plasmodium falciparum = test: Antimalarial activity against Plasmodium falciparum infected in human RBC assessed as reduction in parasite growth measured after 72 hrs by flow cytometry analysis; format: functional, organism-based; settings: Erythrocyte
[4] = Kinetic solubility of compound; format: physicochemical; settings: read-out: Kinetic_solubility
MDR1 [5] = test: Apparent permeability in pig LLC-PK1 cells expressing MDR1 measured upto 360 mins; format: ADME, cell-based, Sus scrofa
[6] = Metabolic stability in human liver microsomes assessed as intrinsic clearance; format: ADME, Microsome; settings: read-out: CLH
MDR1 [7] = test: Efflux ratio of apparent permeability in pig LLC-PK1 cells expressing MDR1 measured upto 360 mins; format: ADME, cell-based, Sus scrofa
[8] = Lipophilicity, logD of the compound in octanol-buffer at pH 7.4 measured after 18 hrs under shaking condition by reverse phase HPLC-MS analysis; format: physicochemical
[9] = Metabolic stability in mouse liver microsomes assessed as intrinsic clearance; format: ADME, Microsome; settings: read-out: CLH
[10] = Clearance in iv dosed C57BL/6J mouse; format: ADME, organism-based; settings: in vivo
[11] = MRT in iv dosed C57BL/6J mouse; format: ADME, organism-based; settings: in vivo
[12] = AUC in iv dosed C57BL/6J mouse; format: ADME, organism-based; settings: in vivo
[13] = Fraction unbound in iv dosed C57BL/6J mouse; format: ADME, organism-based; settings: in vivo
[14] = Volume of distribution in iv dosed C57BL/6J mouse; format: ADME, organism-based; settings: in vivo

| Structure (SMILES) | pIC50 [1] | inhibition (INH) [2] | inhibition (INH) [3] | other results |
| --- | --- | --- | --- | --- |
| O=C(NCCCN1CCCCCC1)c1nnc(-c2ccccc2)s1 | 5.98 | Not Active | Not Active |  |
| COC1CCN(CCCNC(=O)c2cnc(-c3ccccc3)s2)CC1 | 5.22 | Not Active | Not Active |  |
| Cn1c(=O)c2cc(C(=O)NCCCN3CCCCCC3)sc2c2ccccc21 | 6.09 | Not Active | Not Active | pIC50 (Plasmodium falciparum): 7.05; solubility kinetic [4]: 69 µg/mL (≈ 174 µM); Papp at 6 h (MDR1 [5]): 4.1 ×10⁻⁶ cm/s; microsomal CLint [6]: < 1 µL/min/mg; efflux ratio at 6 h (MDR1 [7]): 6.8; logD at 18 h [8]: 1.89; microsomal CLint [9]: 483 µL/min/mg |
| O=C(NCCCN1CCOCC1)c1cnc(-c2ccccc2)s1 | 4.92 | Not Active | Not Active |  |
| Cc1c(C(=O)NCCCN2CCCCCC2)noc1-c1ccccc1 | 5.69 | Not Active | Not Active |  |
| Cn1c(-c2ccccc2)cnc1C(=O)NCCCN1CCCCCC1 | 4.89 | Not Active | Not Active |  |
| O=C(NCCCN1CCCCC1)c1cnc(-c2ccccc2)s1 | 5.67 | Not Active | Not Active |  |
| CC1CCCN1CCCNC(=O)c1cnc(-c2ccccc2)s1 (centres undefined) | < 5.00 | Not Active | Not Active |  |
| Cc1nc(C(=O)NCCCN2CCCCCC2)sc1-c1ccccc1 | 5.99 | Not Active | Not Active |  |
| O=C(NCCCN1CCCCCC1)c1cnc(-c2ccccc2)s1 | 6.10 | Not Active | Not Active |  |
| O=C(NCCCN1CCCCCC1)c1cc(-c2ccccc2)on1 | 5.74 | Not Active | Not Active |  |
| CN(C)CCCNC(=O)c1cnc(-c2ccccc2)s1 | 5.22 | Not Active | Not Active |  |
| O=C(NCCCN1CCCCCC1)c1ccc(-c2ccccc2)s1 | 5.87 | Not Active | Not Active |  |
| O=C(CCCN1CCCCCC1)Nc1nnc(-c2ccc(F)cc2)s1 | 5.74 | Not Active | Not Active | pIC50 (Plasmodium falciparum): 7.14; solubility kinetic [4]: > 91 µg/mL; Papp at 6 h (MDR1 [5]): 12.6 ×10⁻⁶ cm/s; microsomal CLint [6]: 39 µL/min/mg; efflux ratio at 6 h (MDR1 [7]): 0.9; logD at 18 h [8]: 1.97; microsomal CLint [9]: < 1 µL/min/mg |
| O=C(CCCN1CCCOCC1)Nc1cnc(-c2ccc(F)cc2F)s1 | 5.71 | Not Active | Not Active | clearance [10]: 25.3 mL/min/kg; MRT [11]: 2.63 h; pIC50 (Plasmodium falciparum): 7.13; solubility kinetic [4]: > 100 µg/mL; Papp at 6 h (MDR1 [5]): 9.2 ×10⁻⁶ cm/s; AUC [12]: 65.8 ng·h/mL; microsomal CLint [6]: < 1 µL/min/mg; efflux ratio at 6 h (MDR1 [7]): 1.5; logD at 18 h [8]: 2.41; microsomal CLint [9]: 22 µL/min/mg; fraction unbound [13]: 0.09; Vd [14]: 4 L/kg |
| O=C(NCCCN1CCCCCC1)c1ncc(-c2ccccc2)o1 | 5.62 | Not Active | Not Active |  |
